# PubChem BioAssay (NCI)
#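 Values below derive from 48-hour exposures of cells grown in 96-well plates, with endpoints linearly interpolated between the two concentrations bracketing the appropriate inhibition level. Here, GI50 denotes the concentration required for 50% inhibition of growth. TGI denotes the concentration required for complete inhibition of growth.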
# How the values were obtained:
# Assay in all cases: NCI tumour cell line growth inhibition, 48 h
# 786-0 renal = tested on: 786-0 renal
# A498 renal = tested on: A498 renal
# A549 NSCLC = tested on: A549 NSCLC
# ACHN renal = tested on: ACHN renal
# BT-549 breast = tested on: BT-549 breast
# CAKI-1 renal = tested on: CAKI-1 renal
# CCRF-CEM leukemia = tested on: CCRF-CEM leukemia
# COLO 205 colon = tested on: COLO 205 colon
# DU-145 prostate = tested on: DU-145 prostate
# EKVX NSCLC = tested on: EKVX NSCLC
# HCC-2998 colon = tested on: HCC-2998 colon
# HCT-116 colon = tested on: HCT-116 colon
# HCT-15 colon = tested on: HCT-15 colon
# HL-60(TB) leukemia = tested on: HL-60(TB) leukemia
# HOP-62 NSCLC = tested on: HOP-62 NSCLC
# HOP-92 NSCLC = tested on: HOP-92 NSCLC
# HS 578T breast = tested on: HS 578T breast
# HT29 colon = tested on: HT29 colon
# IGROV1 ovarian = tested on: IGROV1 ovarian
# K-562 leukemia = tested on: K-562 leukemia
# KM12 colon = tested on: KM12 colon
# LOX IMVI melanoma = tested on: LOX IMVI melanoma
# MALME-3M melanoma = tested on: MALME-3M melanoma
# MCF7 breast = tested on: MCF7 breast
# MDA-MB-231 breast = tested on: MDA-MB-231 breast
# MOLT-4 leukemia = tested on: MOLT-4 leukemia
# NCI-H226 lung = tested on: NCI-H226 lung
# NCI-H23 lung = tested on: NCI-H23 lung
compound,measurement,setting,value
C/C(=C\c1ccn(-c2ccccc2N)n1)[C@@H]1C[C@@H]2O[C@]2(C)CCC[C@H](C)[C@H](O)[C@@H](C)C(=O)C(C)(C)[C@@H](O)CC(=O)O1,GI50,786-0 renal,93.8 nM
same,TGI,786-0 renal,> 42600 nM
same,GI50,A498 renal,37.2 nM
same,TGI,A498 renal,669 nM
same,GI50,A549 NSCLC,37.2 nM
same,TGI,A549 NSCLC,> 50000 nM
same,GI50,ACHN renal,283 nM
same,TGI,ACHN renal,> 50000 nM
same,GI50,BT-549 breast,116 nM
same,TGI,BT-549 breast,> 13100 nM
same,GI50,CAKI-1 renal,242 nM
same,TGI,CAKI-1 renal,> 50000 nM
same,GI50,CCRF-CEM leukemia,34.3 nM
same,TGI,CCRF-CEM leukemia,> 50000 nM
same,GI50,COLO 205 colon,21.2 nM
same,TGI,COLO 205 colon,641 nM
same,GI50,DU-145 prostate,56.4 nM
same,TGI,DU-145 prostate,402 nM
same,GI50,EKVX NSCLC,684 nM
same,TGI,EKVX NSCLC,> 50000 nM
same,GI50,HCC-2998 colon,46.7 nM
same,TGI,HCC-2998 colon,> 18300 nM
same,GI50,HCT-116 colon,19.1 nM
same,TGI,HCT-116 colon,> 50000 nM
same,GI50,HCT-15 colon,39.3 nM
same,TGI,HCT-15 colon,> 50000 nM
same,GI50,HL-60(TB) leukemia,32.9 nM
same,TGI,HL-60(TB) leukemia,228 nM
same,GI50,HOP-62 NSCLC,112 nM
same,TGI,HOP-62 NSCLC,> 50000 nM
same,GI50,HOP-92 NSCLC,146 nM
same,TGI,HOP-92 NSCLC,> 50000 nM
same,GI50,HS 578T breast,65.8 nM
same,TGI,HS 578T breast,10000 nM
same,GI50,HT29 colon,20.6 nM
same,TGI,HT29 colon,> 50000 nM
same,GI50,IGROV1 ovarian,247 nM
same,TGI,IGROV1 ovarian,> 50000 nM
same,GI50,K-562 leukemia,26.8 nM
same,TGI,K-562 leukemia,> 50000 nM
same,GI50,KM12 colon,20.3 nM
same,TGI,KM12 colon,> 50000 nM
same,GI50,LOX IMVI melanoma,33.1 nM
same,TGI,LOX IMVI melanoma,> 50000 nM
same,GI50,MALME-3M melanoma,127 nM
same,TGI,MALME-3M melanoma,> 50000 nM
same,GI50,MCF7 breast,16.8 nM
same,TGI,MCF7 breast,> 50000 nM
same,GI50,MDA-MB-231 breast,247 nM
same,TGI,MDA-MB-231 breast,> 50000 nM
same,GI50,MOLT-4 leukemia,34.1 nM
same,TGI,MOLT-4 leukemia,> 42200 nM
same,GI50,NCI-H226 lung,7140 nM
same,TGI,NCI-H226 lung,> 50000 nM
same,GI50,NCI-H23 lung,66.3 nM
